Reference: US9993494B2, “Compositions and methods for treating fibrotic disease” (eFFECTOR Therapeutics, Inc., priority 2014, dated 2018)

Test system: normal human lung fibroblasts
Assay: Ribosomal profiling: translational efficiency in TGFβ-treated fibroblasts
Format: cell-based
Procedure: Ribosomal profiling allows for measurement of changes in transcription and translation on a genome-wide basis accompanying TGFβ-dependent transformation of fibroblasts to myofibroblasts. Ribosomal profiles of the TGFβ-treated fibroblasts from Example 1 (about 6×10^6 cells/10 cm plate) were prepared and analyzed for changes in translational efficiencies with respect to potential disease-associated cellular changes accompanying this TGFβ-induced transformation.
Briefly, cells were washed with cold PBS supplemented with cycloheximide and lysed with 1× mammalian cell lysis buffer for 10 minutes on ice. Lysates were clarified by centrifugation for 10 minutes at 14,000 rpm and supernatants were collected. Cell lysates were processed to generate ribosomal protected fragments and total mRNA according to the instructions included with the ARTseq Ribosome Profiling Kit (Illumina, San Diego, Calif.). Sequencing of total RNA (RNA) and of ribosome-protected fragments of RNA (RPF) was carried out using RNA-Seq methodology according to the manufacturer's instructions (Illumina). To analyze the ribosomal profiles, RNA-Seq reads were processed with tools from the FASTX-Toolkit (fastq_quality_trimmer, fastx_clipper and fastx_trimmer). Unprocessed and processed reads were evaluated for a variety of quality measures using FastQC, and processed reads were mapped to the human genome using TopHat (see, e.g., Trapnell et al., Bioinformatics 25:1105, 2009). Gene-by-gene assessment of the number of fragments strictly and uniquely mapping to the coding region of each gene was conducted using HTSeq-count, a component of the HTSeq package. […] Genes with low counts in either RPF or RNA were excluded from differential analyses. Pathway and network analyses of differential data were conducted using Ingenuity Pathway Analysis (IPA).

TGFβ was tested, and the “Log2 TE FANCL” value (ENSG00000115392, 5 replicates) was −1.233, the “Log2 TE IL1R1” value (ENSG00000115594, 5 replicates) was −1.003 and the “Log2 TE PIK3R3” value (ENSG00000117461, 5 replicates) was −1.0571. The “Log2 TE DPH5” value (ENSG00000117543, 5 replicates) was 1.114, the “change in translational profile of DPH5 caused by TGFβ” value (ENSG00000117543, Control vs. TGFβ) was “D (D = <1.0 to 1.5)” and the “Log2 TE CENPF” value (ENSG00000117724, 5 replicates) was −1.237. For the same substance, the “Log2 TE RPS25” value (ENSG00000118181, 5 replicates) was 1.697, the “Log2 TE SGIP1” value (ENSG00000118473, 5 replicates) was −2.768 and the “Log2 TE PPL” value (ENSG00000118898, 5 replicates) was −1.54. The “change in translational profile of PPL caused by TGFβ” value (ENSG00000118898, Control vs. TGFβ) was “B (B = <−1.5 to −2.5)”, the “Log2 TE NR4A3” value (ENSG00000119508, 5 replicates) was −1.931 and the “Log2 TE TEK” value (ENSG00000120156, 5 replicates) was −1.652. The “change in translational profile of PLEKHG1 caused by TGFβ” value (ENSG00000120278, Control vs. TGFβ) was “B (B = <−1.5 to −2.5)”, the “change in translational profile of LIAS caused by TGFβ” value (ENSG00000121897, Control vs. TGFβ) was “D (D = <1.0 to 1.5)” and the “Log2 TE GPSM2” value (ENSG00000121957, 5 replicates) was −1.408. The “change in translational profile of GPSM2 caused by TGFβ” value (ENSG00000121957, Control vs. TGFβ) was “B (B = <−1.5 to −2.5)”, the “change in translational profile of RPL21 caused by TGFβ” value (ENSG00000122026, Control vs. TGFβ) was “E (E = <1.5 to 2.5)” and the “Log2 TE RPL5” value (ENSG00000122406, 5 replicates) was 1.593. For the same substance, the “change in translational profile of RPL5 caused by TGFβ” value (ENSG00000122406, Control vs. TGFβ) was “E (E = <1.5 to 2.5)”, the “change in translational profile of INHBA caused by TGFβ” value (ENSG00000122641, Control vs. TGFβ) was “D (D = <1.0 to 1.5)” and the “Log2 TE CIT” value (ENSG00000122966, 5 replicates) was −3.084. For the same substance, the “change in translational profile of CIT caused by TGFβ” value (ENSG00000122966, Control vs. TGFβ) was “A (A = <−2.5)”, the “Log2 TE ATP8A1” value (ENSG00000124406, 5 replicates) was −2.122 and the “Log2 TE TRERF1” value (ENSG00000124496, 5 replicates) was −1.891. For the same substance, the “Log2 TE RPS10” value (ENSG00000124614, 5 replicates) was 1.211, the “Log2 TE COL21A1” value (ENSG00000124749, 5 replicates) was −1.445 and the “Log2 TE ATP5S” value (ENSG00000125375, 5 replicates) was 1.075. For the same substance, the “Log2 TE RPL23” value (ENSG00000125691, 5 replicates) was 1.604, the “change in translational profile of RPL23 caused by TGFβ” value (ENSG00000125691, Control vs. TGFβ) was “E (E = <1.5 to 2.5)” and the “Log2 TE RTN2” value (ENSG00000125744, 5 replicates) was −1.143. For the same substance, the “Log2 TE LAMP5” value (ENSG00000125869, 5 replicates) was 1.298, the “change in translational profile of LAMP5 caused by TGFβ” value (ENSG00000125869, Control vs. TGFβ) was “E (E = <1.5 to 2.5)” and the “Log2 TE NECAB3” value (ENSG00000125967, 5 replicates) was 1.403. For the same substance, the “change in translational profile of NECAB3 caused by TGFβ” value (ENSG00000125967, Control vs. TGFβ) was “E (E = <1.5 to 2.5)”, the “change in translational profile of COX7C caused by TGFβ” value (ENSG00000127184, Control vs. TGFβ) was “D (D = <1.0 to 1.5)” and the “Log2 TE TNFRSF19” value (ENSG00000127863, 5 replicates) was −1.093. The “Log2 TE ZFP36” value (ENSG00000128016, 5 replicates) was 1.188, the “change in translational profile of LIF caused by TGFβ” value (ENSG00000128342, Control vs. TGFβ) was “D (D = <1.0 to 1.5)” and the “Log2 TE APOBEC3F” value (ENSG00000128394, 5 replicates) was −1.127. For the same substance, the “Log2 TE SMO” value (ENSG00000128602, 5 replicates) was −1.254, the “Log2 TE CGNL1” value (ENSG00000128849, 5 replicates) was −1.023 and the “Log2 TE CD68” value (ENSG00000129226, 5 replicates) was 1.048. The “Log2 TE MTUS1” value (ENSG00000129422, 5 replicates) was −1.149, the “change in translational profile of MTUS1 caused by TGFβ” value (ENSG00000129422, Control vs. TGFβ) was “B (B = <−1.5 to −2.5)” and the “Log2 TE ARHGEF6” value (ENSG00000129675, 5 replicates) was −1.1. The “change in translational profile of ARHGEF6 caused by TGFβ” value (ENSG00000129675, Control vs. TGFβ) was “C (C = <−1.0 to −1.5)”, the “Log2 TE RPL36” value (ENSG00000130255, 5 replicates) was 1.411 and the “change in translational profile of RPL36 caused by TGFβ” value (ENSG00000130255, Control vs. TGFβ) was “E (E = <1.5 to 2.5)”. The “change in translational profile of GDF15 caused by TGFβ” value (ENSG00000130513, Control vs. TGFβ) was “D (D = <1.0 to 1.5)”, the “change in translational profile of ASS1 caused by TGFβ” value (ENSG00000130707, Control vs. TGFβ) was “D (D = <1.0 to 1.5)” and the “Log2 TE EIF2S3” value (ENSG00000130741, 5 replicates) was 1.067. For the same substance, the “change in translational profile of EIF2S3 caused by TGFβ” value (ENSG00000130741, Control vs. TGFβ) was “D (D = <1.0 to 1.5)”, the “Log2 TE RPL27” value (ENSG00000131469, 5 replicates) was 1.519 and the “change in translational profile of RPL27 caused by TGFβ” value (ENSG00000131469, Control vs. TGFβ) was “E (E = <1.5 to 2.5)”. The “Log2 TE TOP2A” value (ENSG00000131747, 5 replicates) was −1.314, the “Log2 TE MATN3” value (ENSG00000132031, 5 replicates) was 1.34 and the “change in translational profile of MATN3 caused by TGFβ” value (ENSG00000132031, Control vs. TGFβ) was “D (D = <1.0 to 1.5)”. For the same substance, the “Log2 TE SPATA6” value (ENSG00000132122, 5 replicates) was −1.925 and the “Log2 TE PPARG” value (ENSG00000132170, 5 replicates) was −3.52.
